Measurements from patent publication US20260125388A1 (priority 2022, published 2026).
In brackets after ≈: the same amount, converted by molar mass. Where two headings read alike, the source gives them in different places.

Assays:
[1] = Aqueous solubility, shake flask in PBS buffer; assay type: physicochemical; settings: for Aqueous solubility: pH 7.2
Description: 5-50 mg of compound was added to 500 μL of PBS buffer at pH 7.4. The pH was adjusted if necessary, using a 1M NaOH solution. The solutions were vortexed for 10 s, sonicated for 2 min and agitated with a horizontal shaker in a closed vial for 24 h. The mixtures were transferred to an Eppendorf tube and centrifuged for 5 min at 16000×g followed by filtration through […] cellulose acetate spin X centrifuge filter (Costar). 200 μL of filtrate was transferred to a new Eppendorf tube and 200 μL of methanol was added and then subsequent dilution was made in 50:50 methanol/PBS buffer water if necessary. After mixing, 50 μL were transferred into a 384 well plate (Coring UV star, 781801) for UV detection at 250-600 nm (Tecan M1000). The assay was carried out with three independent samples of each compound. The concentration of each solution was determined with a calibration curve in 50:50 methanol/PBS buffer water. Absorbance of corresponding methanol PBS blank were recorded and subtracted from the absorbance of calibration curve solutions and from the samples.

[2] = system: HEK293 cells; assay: Cytotoxicity, CellTiter-Glo cell viability assay; assay type: cell-based, human; settings: for Cytotoxicity LD50: HEK293 cells, CellTiter-Glo, Table 3; for LD50 HEK293: human kidney cells, Table 2
Description: Compounds with increased cytotoxicity can be identified using an in vitro cytotoxicity assay. Therefore, human embryonic kidney 293T (HEK293T) cell lines were purchased (ATCC) and cultured in 75 cm2 flasks (CellStar). Cells were grown in DMEM/High Glucose (Hyclone, #SH3024301) media to which non-essential amino acids (Hyclone, #SH30238.01), 10 mM HEPES (Hyclone, #SH302237.01), 5×106 units of penicillin and streptomycin (Hyclone, #SV30010), and 10% of heat inactivated fetal bovine serum (Gibco, #10082147) were added. Cells were harvested using 0.05% Trypsin (Hyclone, #SH3023601). The cell viability assay was evaluated using CellTiter-Glo™ Luminescent Cell Viability Assay Kit (Promega, Madison, WI), which contains luciferase and all its substrate except ATP. The controls for the cytotoxicity assay used were (E)-10-(bromotriphenylphosphoranyl)decyl 4-(4-(tert-butyl)phenyl)-4-oxobut-2-enoate (400 μM in DMSO, positive control) and DMSO (negative control). All luminescence readings were performed on a Tecan Infinite M1000 plate reader. Small volume transfers were performed on the Tecan Freedom EVO liquid handling system with a 100 nL pin tool transfer (V&P Scientific). Serial dilutions were done in 96-well polypropylene plates (Coming, #3365) and assays were conducted in 384-well white optical bottom plates. The assays were carried out in quadruplet in three independent runs. The data were normalized to the controls and if possible analyzed by nonlinear regression (GraphPad Prism).

[3] = parallel artificial membrane permeation assay at pH 7.4
Description: The artificial membrane was prepared by carefully pipetting 15 μL of the 5% (v/v) hexadecane in hexane solution to each of the wells of the donor plate. The plate was placed into a fume hood for 1 h to ensure complete evaporation of the hexane. After the hexane had evaporated, 300 μL of PBS with 5% (v/v) DMSO was added to each of the wells of the acceptor plate. The hexadecane treated donor plate was then placed on top of the acceptor plate taking care that the underside of the membrane is completely in contact with the solution in each of the acceptor wells. […] The lid was placed on the plates and the entire plate sandwich was placed into a closed humid environment. The container was then placed on a reciprocal shaker for agitation at about 100 rpm. The time at the beginning of the incubation was recorded, as this is a thermodynamic-based assay. The incubation was then allowed to continue for 18 h. The donor plate was removed and 50 μL of the acceptor solution was transferred to the UV plate. Drug solutions at the theoretical equilibrium concentration (100 μM) was also prepared and transferred to the UV plate. The absorbance of the solutions in the UV plate was then scanned from 250-600 nm with 1 nm steps and a 5 nm bandwidth. Log Pe was calculated as follows (Equation 1).

[4] = system: GABAA receptor; assay: GABAA receptor binding, competition assay with [3H]-flunitrazepam and rat brain membranes; settings: for GABAAR binding, % inhibition at 10 μM: Table 3
Description: GABAA receptor binding: Rat brain membranes were prepared from frozen tissue that was thawed on ice and homogenized on ice in 10 volumes of cold lysis buffer (50 mM Tris HCl, pH 7.4, containing protease inhibitor cocktail from Roche) using a Polytron homogenizer (6 pulses and 10 seconds per pulse). The homogenate was centrifuged at 1,000×g for 10 min at 4° C. to obtain the supernatant. The supernatant was then centrifuged at 40,000×g for 20 min, and the resulting supernatant decanted and replaced with the same ice-cold lysis buffer. Two or three additional rounds of homogenization-centrifugation were performed to ensure thorough homogenization and also to wash out endogenous ligands. The final pellet was resuspended in the same buffer and homogenized one last time. […] Total binding and nonspecific binding were determined with reference compound clonazepam. […] Scintillation cocktail is then melted onto the microwave-dried filters on a hot plate and radioactivity counted in a Microbeta counter. The data (n=6) were analyzed by nonlinear regression.

[5] = 3H-flunitrazepam, rat brain extract
[6] = read-out: GABAAR binding (IC50), value in brackets, 3H-flunitrazepam, rat brain extract, Table 3, unit inferred
[7] = [3H]-flunitrazepam, rat brain, Table 1

SMILES	Aqueous solubility [1]	Cytotoxicity LD50 [2]	Permeability (log Pe (cm/s)) [3]	GABAAR binding, % inhibition at 10 μM [4, 5]	IC50 [4, 6]	Aqueous solubility (footnote b: mM) ([1]; pH 7.2, cells marked b)	LD50 HEK293 [2]	% Inhibition at 10 μM [4, 7]	solubility at 24 h ([1]; PBS buffer, aqueous buffer, thermodynamic from solid, pH 7.2, cells marked b, read-out: Aqueous solubility (footnote b: mM))	IC50 [4, 7]
O=C1Nc2ccc(Br)cc2C(c2ccccc2F)=NC12CC2 [Compound 2]	321 ± 19 µM	>150 µM	−5.6 ± 0.05 cm/s	97%	42 nM					
O=C1Nc2ccc(Cl)cc2C(c2ccccc2F)=NC12CC2 [Compound 6]	39 ± 3 µM	>150 µM	−5.2 ± 0.15 cm/s	90%	665 nM					
CC1(C)N=C(c2ccccc2F)c2cc(Br)ccc2NC1=O [Compound 8]	319 ± 24 µM	>150 µM	−5.7 ± 0.01 cm/s	70%	1250 nM					
CCOC(=O)c1ncn2c1C1(CC1)N=C(c1ccccc1F)c1cc(Br)ccc1-2 [Compound 9]	141 ± 20 µM	>120 µM	−5.1 ± 0.10 cm/s	94%	87 nM					
CCOC(=O)c1ncn2c1C1(CCC1)N=C(c1ccccc1F)c1cc(Br)ccc1-2 [Compound 11]	144 ± 7 µM	106 ± 9 µM	−5.8 ± 0.10 cm/s	19 (n.d.) %						
CCOC(=O)c1ncn2c1C1(CCCC1)N=C(c1ccccc1F)c1cc(Br)ccc1-2 [Compound 12]	141 ± 19 µM	96 ± 11 µM	−6.0 ± 0.06 cm/s	74%	6220 nM					
CCOC(=O)c1ncn2c1C1(CCCCC1)N=C(c1ccccc1F)c1cc(Br)ccc1-2 [Compound 13]	54 ± 2 µM	>150 µM	−5.6 ± 0.04 cm/s	34 (n.d.) %						
CCOC(=O)c1ncn2c1C(C)(C)N=C(c1ccccc1F)c1cc(Br)ccc1-2 [Compound 15]	103 ± 5 µM	>150 µM	−6.0 ± 0.12 cm/s	78%	733 nM					
C#Cc1ccc2c(c1)C(c1ccccc1F)=NC1(CC1)c1c(C(=O)O)ncn1-2 [Compound 20, 8-ethynyl-6-(2-fluorophenyl)spiro[benzo[f]imidazo[1,5-a][1,4]diazepine-4,1′-cyclopropane]-3-carboxylic acid]		>300 µM	−6.7 ± 0.12 cm/s	55%	59 nM	40.3 ± 0.5 ^b mM	>400 µM			
C#Cc1ccc2c(c1)C(c1ccccc1F)=NC1(CCCC1)c1c(C(=O)O)ncn1-2 [Compound 21, 8-ethynyl-6-(2-fluorophenyl)spiro[benzo[f]imidazo[1,5-a][1,4]diazepine-4,1′-cyclopentane]-3-carboxylic acid]							>400 µM	0%		
O=C(O)c1ncn2c1C1(CC1)N=C(c1ccccc1F)c1cc(C3CC3)ccc1-2 [Compound 24, 8-cyclopropyl-6-(2-fluorophenyl)spiro[benzo[f]imidazo[1,5-a][1,4]diazepine-4,1′-cyclopropane]-3-carboxylic acid]		>300 µM	−6.4 ± 0.04 cm/s	58%	1830 nM	12.8 ± 0.1 ^b mM	>400 µM			
O=C(O)c1ncn2c1C1(CCCC1)N=C(c1ccccc1F)c1cc(C3CC3)ccc1-2 [Compound 25, 8-cyclopropyl-6-(2-fluorophenyl)spiro[benzo[f]imidazo[1,5-a][1,4]diazepine-4,1′-cyclopentane]-3-carboxylic acid]							>400 µM	31.4%		
O=C(O)c1ncn2c1C1(CC1)N=C(c1ccccc1F)c1cc(Br)ccc1-2 [Compound 26, 8-bromo-6-(2-fluorophenyl)spiro[benzo[f]imidazo[1,5-a][1,4]diazepine-4,1′-cyclopropane]-3-carboxylic acid]		>300 µM	−6.8 ± 0.09 cm/s	97%	9 nM		>400 µM	97.0%	8.2 mM (≈ 3500 µg/mL)	9.1 nM
O=C(O)c1ncn2c1C1(CCC1)N=C(c1ccccc1F)c1cc(Br)ccc1-2 [Compound 27, 8-bromo-6-(2-fluorophenyl)spiro[benzo[f]imidazo[1,5-a][1,4]diazepine-4,1′-cyclobutane]-3-carboxylic acid]		>300 µM	−6.6 ± 0.10 cm/s	59%	1830 nM	58.7 ± 4.4 ^b mM	>400 µM	59.4%		1830 nM
O=C(O)c1ncn2c1C1(CCCC1)N=C(c1ccccc1F)c1cc(Br)ccc1-2 [Compound 28, 8-bromo-6-(2-fluorophenyl)spiro[benzo[f]imidazo[1,5-a][1,4]diazepine-4,1′-cyclopentane]-3-carboxylic acid]		>300 µM	−6.7 ± 0.04 cm/s	2 (n.d.) %		46.7 ± 0.6 ^b mM	>400 µM	23.8%		
O=C(O)c1ncn2c1C1(CCCCC1)N=C(c1ccccc1F)c1cc(Br)ccc1-2 [Compound 29, 8-bromo-6-(2-fluorophenyl)spiro[benzo[f]imidazo[1,5-a][1,4]diazepine-4,1′-cyclohexane]-3-carboxylic acid]		>300 µM	−6.6 ± 0.10 cm/s	24 (n.d.) %		46.9 ± 1.3 ^b mM	>400 µM	1.9%		
O=C(O)c1ncn2c1C1(CC1)N=C(c1ccccc1F)c1cc(Cl)ccc1-2 [Compound 30, 8-chloro-6-(2-fluorophenyl)spiro[benzo[f]imidazo[1,5-a][1,4]diazepine-4,1′-cyclopropane]-3-carboxylic acid]		>300 µM	−6.6 ± 0.03 cm/s	18 (n.d.) %		36.2 ± 0.4 ^b mM	>400 µM			
O=C(O)c1ncn2c1C1(CCCC1)N=C(c1ccccc1F)c1cc(Cl)ccc1-2 [Compound 31, 8-chloro-6-(2-fluorophenyl)spiro[benzo[f]imidazo[1,5-a][1,4]diazepine-4,1′-cyclopentane]-3-carboxylic acid]							>400 µM	47.8%		
O=C(O)c1ncn2c1C1(CCCC1)N=C(c1ccccc1F)c1ccccc1-2 [Compound 33, 6-(2-fluorophenyl)spiro[benzo[f]imidazo[1,5-a][1,4]diazepine-4,1′-cyclopentane]-3-carboxylic acid]							>400 µM	4.7%		
